Reference: ChEMBL document CHEMBL5303573, “Mapping human microbiome drug metabolism by gut bacteria and their genes” (Nature, 2019)

What was measured:
[1] = The drug is tested on Collinsella aerofaciens strain: ATCC25986 for biotransformation. The drug concentrations were measured before and after a 12-h incubation by liquid-chromatography-coupled mass spectrometry (LC–MS); conditions: 2 µM
[2] = The drug is tested on Alistipes indistinctus strain: DSM22520 for biotransformation. The drug concentrations were measured before and after a 12-h incubation by liquid-chromatography-coupled mass spectrometry (LC–MS); conditions: 2 µM
[3] = The drug is tested on Parabacteroides merdae strain: ATCC43184 for biotransformation. The drug concentrations were measured before and after a 12-h incubation by liquid-chromatography-coupled mass spectrometry (LC–MS); conditions: 2 µM
[4] = The drug is tested on Clostridium sporogenes strain: ATCC15579 for biotransformation. The drug concentrations were measured before and after a 12-h incubation by liquid-chromatography-coupled mass spectrometry (LC–MS); conditions: 2 µM
[5] = The drug is tested on Dorea formicigenerans strain: ATCC27755 for biotransformation. The drug concentrations were measured before and after a 12-h incubation by liquid-chromatography-coupled mass spectrometry (LC–MS); conditions: 2 µM
[6] = The drug is tested on Eubacterium rectale strain: ATCC33656 for biotransformation. The drug concentrations were measured before and after a 12-h incubation by liquid-chromatography-coupled mass spectrometry (LC–MS); conditions: agathobacter rectalis, 2 µM
[7] = The drug is tested on Ruminococcus gnavus strain: ATCC29149 for biotransformation. The drug concentrations were measured before and after a 12-h incubation by liquid-chromatography-coupled mass spectrometry (LC–MS); conditions: mediterraneibacter gnavus, 2 µM
[8] = The drug is tested on Ruminococcus lactaris strain: ATCC29176 for biotransformation. The drug concentrations were measured before and after a 12-h incubation by liquid-chromatography-coupled mass spectrometry (LC–MS); conditions: 2 µM
[9] = The drug is tested on Subdoligranulum variabile strain: DSM15176 for biotransformation. The drug concentrations were measured before and after a 12-h incubation by liquid-chromatography-coupled mass spectrometry (LC–MS); conditions: 2 µM
[10] = The drug is tested on Providencia stuartii strain: ATCC25827 for biotransformation. The drug concentrations were measured before and after a 12-h incubation by liquid-chromatography-coupled mass spectrometry (LC–MS); conditions: 2 µM
[11] = bacteroides fragilis, 12 h, 2 µM
Description: The drug is tested on Bacteroides fragilis strain: NCTC 9343 for biotransformation. The drug concentrations were measured before and after a 12-h incubation by liquid-chromatography-coupled mass spectrometry (LC–MS)

[12] = bacteroides fragilis, 12 h, 2 µM; remark: listed apart in the source
Description: The drug is tested on Bacteroides fragilis strain: 3397 (T10) for biotransformation. The drug concentrations were measured before and after a 12-h incubation by liquid-chromatography-coupled mass spectrometry (LC–MS)

[13] = parabacteroides johnsonii, 12 h, 2 µM
Description: The drug is tested on Parabacteroides johnsonii strain: DSM18315 for biotransformation. The drug concentrations were measured before and after a 12-h incubation by liquid-chromatography-coupled mass spectrometry (LC–MS)

[14] = segatella copri, 12 h, 2 µM
Description: The drug is tested on Prevotella copri strain: DSM18205 for biotransformation. The drug concentrations were measured before and after a 12-h incubation by liquid-chromatography-coupled mass spectrometry (LC–MS)

[15] = enterocloster bolteae, 12 h, 2 µM
Description: The drug is tested on Clostridium bolteae strain: ATCCBAA-613 for biotransformation. The drug concentrations were measured before and after a 12-h incubation by liquid-chromatography-coupled mass spectrometry (LC–MS)

[16] = roseburia intestinalis, 12 h, 2 µM
Description: The drug is tested on Roseburia intestinalis strain: L1-82 for biotransformation. The drug concentrations were measured before and after a 12-h incubation by liquid-chromatography-coupled mass spectrometry (LC–MS)

[17] = victivallis vadensis, 12 h, 2 µM
Description: The drug is tested on Victivallis vadensis strain: ATCC BAA-548 for biotransformation. The drug concentrations were measured before and after a 12-h incubation by liquid-chromatography-coupled mass spectrometry (LC–MS)

[18] = The drug is tested on Bacteroides fragilis strain: HMW615 for biotransformation. The drug concentrations were measured before and after a 12-h incubation by liquid-chromatography-coupled mass spectrometry (LC–MS); conditions: 2 µM
[19] = The drug is tested on Blautia hansenii strain: DSM20583 for biotransformation. The drug concentrations were measured before and after a 12-h incubation by liquid-chromatography-coupled mass spectrometry (LC–MS); conditions: 2 µM
[20] = The drug is tested on Bacteroides vulgatus strain: ATCC8482 for biotransformation. The drug concentrations were measured before and after a 12-h incubation by liquid-chromatography-coupled mass spectrometry (LC–MS); conditions: phocaeicola vulgatus, 2 µM

| SMILES | Bacterial Biotransformation [1] | Bacterial Biotransformation [2] | Bacterial Biotransformation [3] | Bacterial Biotransformation [4] | Bacterial Biotransformation [5] | Bacterial Biotransformation [6] | Bacterial Biotransformation [7] | Bacterial Biotransformation [8] | Bacterial Biotransformation [9] | Bacterial Biotransformation [10] | Bacterial Biotransformation [11] | Bacterial Biotransformation [12] | Bacterial Biotransformation [13] | Bacterial Biotransformation [14] | Bacterial Biotransformation [15] | Bacterial Biotransformation [16] | Bacterial Biotransformation [17] | Bacterial Biotransformation [18] | Bacterial Biotransformation [19] | Bacterial Biotransformation [20] |
| --- | --- | --- | --- | --- | --- | --- | --- | --- | --- | --- | --- | --- | --- | --- | --- | --- | --- | --- | --- | --- |
| CN1CCC(=C2c3ccccc3CCc3cccnc32)CC1.O=C(O)/C=C\C(=O)O.O=C(O)/C=C\C(=O)O [AZATADINE MALEATE] | Compound NOT metabolized | Compound NOT metabolized | Compound NOT metabolized | Compound NOT metabolized | Compound NOT metabolized | Compound NOT metabolized | Compound NOT metabolized | Compound NOT metabolized | Compound NOT metabolized | Compound NOT metabolized | Compound NOT metabolized | Compound NOT metabolized | Compound NOT metabolized | Compound NOT metabolized | Compound NOT metabolized | Compound NOT metabolized | Compound NOT metabolized |  |  |  |
| NS(=O)(=O)c1cc2c(cc1Cl)N=C(CSCc1ccccc1)NS2(=O)=O [BENZTHIAZIDE] | Compound NOT metabolized | Compound NOT metabolized | Compound NOT metabolized | Compound NOT metabolized | Compound NOT metabolized |  | Compound NOT metabolized |  |  |  |  | Compound NOT metabolized |  | Compound NOT metabolized | Compound NOT metabolized | Compound NOT metabolized | Compound NOT metabolized | Compound NOT metabolized | Compound metabolized |  |
| CC(C)(Oc1ccc(CCNC(=O)c2ccc(Cl)cc2)cc1)C(=O)O [BEZAFIBRATE] | Compound metabolized | Compound NOT metabolized | Compound metabolized | Compound metabolized | Compound metabolized | Compound NOT metabolized | Compound NOT metabolized | Compound NOT metabolized |  | Compound metabolized | Compound metabolized | Compound metabolized | Compound NOT metabolized | Compound metabolized | Compound metabolized | Compound metabolized | Compound NOT metabolized |  | Compound NOT metabolized | Compound metabolized |
| CN1C(=O)CCS(=O)(=O)C1c1ccc(Cl)cc1 (configuration not stated) [CHLORMEZANONE] | Compound NOT metabolized | Compound metabolized |  | Compound NOT metabolized |  |  |  |  |  | Compound NOT metabolized | Compound NOT metabolized | Compound NOT metabolized |  | Compound NOT metabolized | Compound NOT metabolized |  | Compound NOT metabolized | Compound NOT metabolized | Compound metabolized | Compound metabolized |
| CN(C)CCC=C1c2ccccc2C=Cc2ccccc21 [CYCLOBENZAPRINE] | Compound NOT metabolized |  | Compound NOT metabolized |  | Compound NOT metabolized | Compound NOT metabolized | Compound NOT metabolized | Compound NOT metabolized |  | Compound NOT metabolized | Compound NOT metabolized | Compound NOT metabolized |  | Compound NOT metabolized | Compound NOT metabolized |  | Compound NOT metabolized | Compound NOT metabolized | Compound metabolized | Compound NOT metabolized |
| CN1C[C@H](C(=O)N[C@]2(C)O[C@@]3(O)[C@@H]4CCCN4C(=O)[C@H](Cc4ccccc4)N3C2=O)C=C2c3cccc4[nH]cc(c34)C[C@H]21.CN1C[C@H](C(=O)N[C@]2(C)O[C@@]3(O)[C@@H]4CCCN4C(=O)[C@H](Cc4ccccc4)N3C2=O)C=C2c3cccc4[nH]cc(c34)C[C@H]21.O=C(O)C(O)C(O)C(=O)O [ERGOTAMINE TARTRATE] | Compound metabolized | Compound NOT metabolized | Compound metabolized | Compound metabolized | Compound NOT metabolized |  | Compound metabolized | Compound metabolized |  | Compound metabolized | Compound metabolized | Compound metabolized | Compound metabolized | Compound metabolized | Compound metabolized | Compound NOT metabolized | Compound metabolized |  | Compound metabolized | Compound metabolized |
| COc1ccc2c(c1OC)C(=O)O[C@@H]2[C@H]1c2c(cc3c(c2OC)OCO3)CCN1C [NOSCAPINE] | Compound metabolized | Compound metabolized | Compound metabolized | Compound NOT metabolized | Compound metabolized |  | Compound NOT metabolized | Compound metabolized |  | Compound metabolized | Compound metabolized | Compound NOT metabolized | Compound metabolized | Compound metabolized | Compound metabolized | Compound metabolized | Compound NOT metabolized | Compound NOT metabolized |  | Compound metabolized |
| CCCc1nc(C(C)(C)O)c(C(=O)OCc2oc(=O)oc2C)n1Cc1ccc(-c2ccccc2-c2nnn[nH]2)cc1 [OLMESARTAN MEDOXOMIL] | Compound metabolized |  | Compound metabolized |  | Compound metabolized | Compound metabolized | Compound NOT metabolized | Compound metabolized | Compound metabolized | Compound metabolized | Compound metabolized | Compound metabolized | Compound metabolized | Compound metabolized | Compound metabolized |  | Compound metabolized |  |  | Compound metabolized |
| CC(=O)SCC(Cc1ccccc1)C(=O)NCC(=O)OCc1ccccc1 (configuration not stated) [RACECADOTRIL] | Compound NOT metabolized | Compound metabolized | Compound metabolized | Compound metabolized |  | Compound NOT metabolized | Compound NOT metabolized | Compound metabolized |  | Compound NOT metabolized | Compound metabolized |  | Compound metabolized | Compound metabolized | Compound NOT metabolized | Compound metabolized | Compound metabolized | Compound metabolized | Compound metabolized | Compound metabolized |
| CCOc1cc(CC(=O)N[C@@H](CC(C)C)c2ccccc2N2CCCCC2)ccc1C(=O)O [REPAGLINIDE] | Compound metabolized | Compound NOT metabolized | Compound NOT metabolized |  | Compound NOT metabolized | Compound NOT metabolized | Compound NOT metabolized | Compound NOT metabolized |  | Compound NOT metabolized |  |  | Compound metabolized | Compound NOT metabolized | Compound metabolized | Compound NOT metabolized | Compound NOT metabolized | Compound metabolized | Compound NOT metabolized | Compound NOT metabolized |
